The assay deals with MAP kinase-activated protein kinase 2 (Homo sapiens, UniProt P49137). Briefly: Inhibition of MK2 in human TERT immortalised HCA2 cells assessed as inhibition of anisomycin-induced HSP27 phosphorylation at 2.5 uM by ELISA. In general terms: An ELISA detects its analyte on a solid surface through an enzyme-linked reagent.

In BindingDB's records for doi:10.1016/j.bmcl.2007.10.036 (Cardiff University, 2007) one finds Ki data, which are given here for one compound.

Sequence of MAP kinase-activated protein kinase 2 (P49137 whole entry): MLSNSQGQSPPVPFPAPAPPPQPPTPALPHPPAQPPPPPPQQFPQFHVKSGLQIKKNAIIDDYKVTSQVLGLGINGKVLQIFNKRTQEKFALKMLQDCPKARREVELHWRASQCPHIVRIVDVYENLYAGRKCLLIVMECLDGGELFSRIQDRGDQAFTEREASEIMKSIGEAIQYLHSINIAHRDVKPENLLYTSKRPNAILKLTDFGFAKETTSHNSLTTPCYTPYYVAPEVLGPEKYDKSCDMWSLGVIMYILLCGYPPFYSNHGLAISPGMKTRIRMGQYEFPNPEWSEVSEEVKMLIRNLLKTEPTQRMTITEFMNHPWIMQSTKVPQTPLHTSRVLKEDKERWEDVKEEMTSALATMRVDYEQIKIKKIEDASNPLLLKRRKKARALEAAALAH

As to `O=C(CCCc1ccc(-c2ccccc2F)cc1)Nc1ccc(O)cc1`, the Ki turned out to be 330 nM.

What is called Ki is the equilibrium dissociation constant of an inhibitor or competing ligand from its target.
